From PubChem BioAssay (NCI)
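At the GI50, growth is halved. TGI: concentration producing complete growth inhibition.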

Experiments:
Test in all cases: inhibition of tumour cell growth, NCI panel, 384-well format
NCI-H226 lung = system: NCI-H226 lung
HCC-2998 colon = system: HCC-2998 colon
OVCAR-3 ovarian = system: OVCAR-3 ovarian
OVCAR-4 ovarian = system: OVCAR-4 ovarian
MALME-3M melanoma = system: MALME-3M melanoma
LOX IMVI melanoma = system: LOX IMVI melanoma
MCF7 breast = system: MCF7 breast
SK-OV-3 ovarian = system: SK-OV-3 ovarian
HOP-92 NSCLC = system: HOP-92 NSCLC
SNB-19 CNS = system: SNB-19 CNS
UO-31 renal = system: UO-31 renal
KM12 colon = system: KM12 colon
SF-268 CNS = system: SF-268 CNS

CNC(=O)c1cc(Oc2ccc(NC(=O)Nc3ccc(Cl)c(C(F)(F)F)c3)cc2)ccn1 gave a GI50 (NCI-H226 lung) of 1.46 µM, a TGI (NCI-H226 lung) of 3.28 µM and a GI50 (HCC-2998 colon) of 2.13 µM. It also gave a TGI (HCC-2998 colon) of 3.86 µM, a GI50 (OVCAR-3 ovarian) of 2.28 µM and a TGI (OVCAR-3 ovarian) of 4.38 µM. It also gave a GI50 (OVCAR-4 ovarian) of 3.59 µM, a TGI (OVCAR-4 ovarian) of 6.84 µM and a GI50 (MALME-3M melanoma) of 2.01 µM. The TGI (MALME-3M melanoma) was 4.12 µM, the GI50 (LOX IMVI melanoma) was 2.19 µM and the TGI (LOX IMVI melanoma) was 4.56 µM. For the same molecule, the GI50 (MCF7 breast) was 2.14 µM, the TGI (MCF7 breast) was 5 µM and the GI50 (SK-OV-3 ovarian) was 3.93 µM. For the same molecule, the TGI (SK-OV-3 ovarian) was 10.4 µM, the GI50 (HOP-92 NSCLC) was 3 µM and the TGI (HOP-92 NSCLC) was 7.6 µM. The GI50 (SNB-19 CNS) was 3.33 µM, the TGI (SNB-19 CNS) was 8.1 µM and the GI50 (UO-31 renal) was 0.748 µM. For the same molecule, the TGI (UO-31 renal) was 1.44 µM, the GI50 (KM12 colon) was 0.413 µM and the TGI (KM12 colon) was 2.32 µM. For the same molecule, the GI50 (SF-268 CNS) was 2.22 µM and the TGI (SF-268 CNS) was 4.71 µM.
